Test results published in patent US20160128990A1, “METHODS OF USING RIFAXIMIN IN POSITION EMISSION TOMOGRAPHY (PET) SCANS” (Salix Pharmaceuticals, Ltd, priority 2013, published 2016).

How the values were obtained:
Type in all cases: in vivo, human
[1] = system: physiologic FDG uptake in the intestinal tract; test: PET-CT scan study of intestinal FDG uptake after rifaximin pre-treatment (Example 1)
Experimental: (§1) This example relates to a study to determine whether an oral antibiotic, rifaximin, administered prior to PET-CT scan can reduce physiologic FDG uptake in the intestinal tract. Thirty (30) patients scheduled for clinically-indicated PET-CT scans were enrolled to receive rifaximin 550 mg twice daily (BID) for two days prior to their scans. Each patient had their prior scheduled PET-CT used as control; that is, their prior PET-CT scan was evaluated as a pre-treatment baseline for intestinal FDG uptake (paired controls). The PET-CT scans of a randomly-selected cohort of 90 patients also scheduled for clinically-indicated PET-CT during the same time period were also used as controls (independent controls). All images were stripped of identifying data, and SUVMax (maximum-pixel-value standardized uptake value) and SUVAvg (average standardized uptake value) for all scans were measured by a radiologist blinded to treatment/control status and normalized to liver SUV, which was selected as the reference for normal tissue activity. A qualitative score of colonic uptake (0-4) was also assessed. Statistical analysis was performed by comparing mean SUV cecum/liver by paired t-test (pre & post) or unpaired t-test (treated & controls).

[2] = system: physiologic FDG uptake in the intestinal tract; test: PET-CT scan studies of intestinal FDG uptake with other rifaximin regimens (Examples 2-6)
Experimental: Patients scheduled for clinically-indicated PET-CT scan are administered rifaximin 550 mg twice daily (BID) for five days prior to their scans. Each patient has their prior scheduled PET-CT used as control; that is, their prior PET-CT scan is evaluated as a pre-treatment baseline for intestinal FDG uptake (paired controls). The PET-CT scans of a randomly-selected cohort of patients also scheduled for clinically-indicated PET-CT during the same time period are used as independent controls. Cecal SUVMax (maximum-pixel-value standardized uptake value) and SUVAvg (average standardized uptake value) for all scans are measured by a radiologist blinded to treatment/control status and normalized to liver SUV, which is selected as the reference for normal tissue activity. A qualitative score of colonic uptake (0-4) is also assessed. Statistical analysis was performed by comparing mean SUV cecum/liver by paired t-test (pre & post) or unpaired t-test (treated & controls). The effect of rifaximin on a global measure of colonic SUV is also measured. Patients scheduled for clinically-indicated PET-CT scan are administered rifaximin 550 mg twice daily (BID) for seven days prior to their scans. Each patient has their prior scheduled PET-CT used as control; that is, their prior PET-CT scan is evaluated as a pre-treatment baseline for intestinal FDG uptake (paired controls). The PET-CT scans of a randomly-selected cohort of patients also scheduled for clinically-indicated PET-CT during the same time period are used as independent controls. Cecal SUVMax (maximum-pixel-value standardized uptake value) and SUVAvg (average standardized uptake value) for all scans are measured by a radiologist blinded to treatment/control status and normalized to liver SUV, which is selected as the reference for normal tissue activity. A qualitative score of colonic uptake (0-4) is also assessed. Statistical analysis was performed by comparing mean SUV cecum/liver by paired t-test (pre & post) or unpaired t-test (treated & controls). The effect of rifaximin on a global measure of colonic SUV is also measured. Patients scheduled for clinically-indicated PET-CT scan are administered rifaximin 550 mg twice daily (BID) for between 48 hours to five days prior to their scans. Each patient has their prior scheduled PET-CT used as control; that is, their prior PET-CT scan is evaluated as a pre-treatment baseline for intestinal FDG uptake (paired controls). […] Cecal SUVMax (maximum-pixel-value standardized uptake value) and SUVAvg (average standardized uptake value) for all scans are measured by a radiologist blinded to treatment/control status and normalized to liver SUV, which is selected as the reference for normal tissue activity. A qualitative score of colonic uptake (0-4) is also assessed. […] The effect of rifaximin on a global measure of colonic SUV is also measured. […] Each patient has their prior scheduled PET-CT used as control; that is, their prior PET-CT scan is evaluated as a pre-treatment baseline for intestinal FDG uptake (paired controls). […] Cecal SUVMax (maximum-pixel-value standardized uptake value) and SUVAvg (average standardized uptake value) for all scans are measured by a radiologist blinded to treatment/control status and normalized to liver SUV, which is selected as the reference for normal tissue activity. A qualitative score of colonic uptake (0-4) is also assessed. […]

[3] = Adverse events in the rifaximin-treated group (Example 1); conditions: rifaximin 550 mg BID for two days, 30 patients
Experimental: as §1

## CO[C@H]1/C=C/O[C@@]2(C)Oc3c(C)c(O)c4c(O)c(c5c(nc6cc(C)ccn65)c4c3C2=O)NC(=O)/C(C)=C\C=C\[C@H](C)[C@H](O)[C@@H](C)[C@@H](O)[C@@H](C)[C@H](OC(C)=O)[C@@H]1C [rifaximin, (2S,16Z,18E,20S,21S,22R, 23R,24R,25S,26S,27S,28E)-5,6,21,23,25 Pentahydroxy-27-methoxy-2,4,11,16,20,22,24,26-octamethyl-2,7-(epoxypentadeca-(1,11,13)trienimino)benzofuro(4,5-e)pyrido(1,2,-a)benzimidazole-1,15(2H)-dione,25-acetate]
[1]
  OR for overall colonic SUV score <1: 3.8
  patients with no major change in cecal SUVmax/liver ratio after rifaximin: 14%
  scans with overall colonic SUV score <1: 53%
[1]; 550 mg BID for two days, paired pre-rifaximin scans, p=0.002
  difference (reduction) in cecal SUVmax / FDG activity in the cecum between pre- and post-rifaximin images: 26%
[1]; 550 mg, 48 h
  mean cecal SUVMax in patients whose SUVMax was >2 in their prior scan: 3.4
[1]; after 2 days of rifaximin pre-treatment
  cecal SUVmax levels in patients with high baseline levels: significantly lower levels
[1]; patients (n=27) with cecal SUVmax/liver ratio >2 in pre-rifaximin scans, 2/27
  patients with higher cecal SUVmax/liver ratio post-rifaximin: 7%
[1]; patients (n=27) with cecal SUVmax/liver ratio >2 in pre-rifaximin scans, 21/27, p=0.0005
  patients with lower cecal SUVmax/liver ratio after rifaximin: 78%
[1]; patients with an initial high cecal SUVMax, FIG. 4
  patients with down-grading of FDG signal intensity (overall colonic SUV signal): 80%
[1]; post-rifaximin scan, 550 mg BID two days, 2.0 without rifaximin, p=0.02 paired t-test
  Normalized (mean) cecal SUVAvg: 1.6
[1]; post-rifaximin scan, 550 mg BID two days, pre-rifaximin 4.0, p=0.7
  Mean colon SUVmax: 3.8
[1]; post-rifaximin scans, score 0-4 by blinded reader, FIG. 4
  distribution of overall colonic SUV grades: left-shift in the distribution of colonic SUV grades from higher to lower grades
[1]; random control scans mean 4.2, no significant difference, p=0.2 unpaired t-test
  mean cecal SUVMax, rifaximin-treated patients vs random control scans: 3.4
[1]; rifaximin for 2 days prior to PET-CT scans
  FDG uptake compared to pre-rifaximin scan: significant reduction
[1]; rifaximin pre-treated group, reduced from 2.3, p=0.07
  qualitative score of whole colonic uptake (0-4), mean: 1.8
[1]; with rifaximin compared to without rifaximin, FIG. 4
  overall percentage of patients with grade of colonic FDG intensity >1: lower
[2]; Example 2: 550 mg BID for five days prior to PET-CT scans
  FDG uptake compared to pre-rifaximin scan: significant reduction
[2]; Example 3: 550 mg BID for seven days prior to PET-CT scans
  FDG uptake compared to pre-rifaximin scan: significant reduction
[2]; Example 4: 550 mg BID for between 48 hours to 5 days prior to PET-CT scans
  FDG uptake compared to pre-rifaximin scan: significant reduction
[2]; Example 5: 1100 mg per day for 48 hours to seven days prior to PET-CT scans
  FDG uptake compared to pre-rifaximin scan: significant reduction
[2]; Example 6: solid dispersion with about 10 mg to about 100 mg rifaximin, once per day up to TID, 48 hours to seven days prior to PET-CT scans
  FDG uptake compared to pre-rifaximin scan: significant reduction
[3]
  adverse events: No adverse events were reported
